This is an account of results in PMC6078311, “Localization and functional characterization of the pathogenesis-related proteins Rbe1p and Rbt4p in Candida albicans” (PLoS ONE, 2018).

The term Kd denotes the equilibrium constant for the complex coming apart. A lower Kd goes with tighter binding.

Structures are written as SMILES.

For one assay, the target named is T1, Rbt4p (Candida albicans, UniProt Q5AB48).
T1 construct: gene RBT4; codon-optimized His-tagged Rbt4p expressed in Escherichia coli
The assay is described as follows: in vitro [3H]-cholesterol radioligand saturation binding with purified protein; competition with unlabeled cholesterol.

The next assay addresses T2, Rbe1p (Candida albicans, UniProt Q59ZX3).
T2 construct: gene RBE1; codon-optimized His-tagged Rbe1p expressed in Escherichia coli
The description is as above.

T1 sequence (Q5AB48 20-358): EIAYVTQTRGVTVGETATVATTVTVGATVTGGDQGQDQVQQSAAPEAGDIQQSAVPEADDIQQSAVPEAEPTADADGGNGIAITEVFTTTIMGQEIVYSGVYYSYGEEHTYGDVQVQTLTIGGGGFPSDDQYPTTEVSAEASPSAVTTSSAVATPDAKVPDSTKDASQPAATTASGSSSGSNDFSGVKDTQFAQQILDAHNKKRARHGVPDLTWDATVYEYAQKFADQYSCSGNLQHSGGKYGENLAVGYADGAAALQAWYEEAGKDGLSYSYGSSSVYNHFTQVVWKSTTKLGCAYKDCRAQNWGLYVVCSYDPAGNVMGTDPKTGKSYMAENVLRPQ
T2 sequence (Q59ZX3 20-271): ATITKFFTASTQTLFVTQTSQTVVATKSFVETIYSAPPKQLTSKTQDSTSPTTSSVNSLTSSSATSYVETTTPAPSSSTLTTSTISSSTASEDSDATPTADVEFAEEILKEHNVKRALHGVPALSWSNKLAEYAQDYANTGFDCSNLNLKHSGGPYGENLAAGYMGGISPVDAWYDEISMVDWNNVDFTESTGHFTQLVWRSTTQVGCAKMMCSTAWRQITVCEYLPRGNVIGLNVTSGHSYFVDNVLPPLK

As for `CC(C)CCC[C@@H](C)[C@H]1CC[C@H]2[C@@H]3CC=C4C[C@@H](O)CC[C@]4(C)[C@H]3CC[C@]12C` [cholesterol], the Kd at Rbt4p is approximately 3.3 µM; at Rbe1p it was approximately 5.78 µM.
